Results reported in BindingDB's records for doi:10.1016/j.bmcl.2004.01.094 (Arqule, 2004).

Key:
[1] = target: Methionyl-tRNA synthetase (Staphylococcus aureus); assay: Inhibition of Staphylococcus aureus methionyl-tRNA synthetase (SaMetRS)
[2] = target: Methionyl-tRNA synthetase (Enterococcus faecalis); assay: Inhibition of Enterococci faecalis methionyl-tRNA synthetase (EfMetRS)
[3] = target: Methionyl-tRNA synthetase (Staphylococcus aureus); assay: Inhibition of Staphylococcus aureus methionyl-tRNA synthetase (SaMetRS); remark: listed apart in the source

| Structure (SMILES) | IC50 [1] | IC50 [2] | IC50 [3] |
| --- | --- | --- | --- |
| CCC/C(=C1/N=C(c2ccc(Br)cc2)OC1=O)N1CC[C@H]1C(=O)N[C@@H](Cc1ccc(O)cc1)C(N)=O [(S)-1-{1-[2-(4-Bromo-phenyl)-5-oxo-oxazol-(4Z)-ylidene]-butyl}-azetidine-2-carboxylic acid [(S)-1-carbamoyl-2-(4-hydroxy-phenyl)-ethyl]-amide] | 87 nM | – | – |
| CCC/C(=C1/N=C(c2ccc(Br)cc2)OC1=O)N1CCC[C@H]1C(=O)N[C@@H](Cc1ccc(O)cc1)C(N)=O [(S)-1-{1-[2-(4-Bromo-phenyl)-5-oxo-oxazol-(4Z)-ylidene]-butyl}-pyrrolidine-2-carboxylic acid [(S)-1-carbamoyl-2-(4-hydroxy-phenyl)-ethyl]-amide] | – | 3110 nM | 760 nM |
| CC/C(=C1/N=C(c2ccc(Br)cc2)OC1=O)N1CCC[C@H]1C(=O)N[C@@H](Cc1ccc(O)cc1)C(N)=O [(S)-1-{1-[2-(4-Bromo-phenyl)-5-oxo-oxazol-(4Z)-ylidene]-propyl}-pyrrolidine-2-carboxylic acid [(S)-1-carbamoyl-2-(4-hydroxy-phenyl)-ethyl]-amide] | 850 nM | 5930 nM | – |

Now from value to molecule:

| IC50 [1] | IC50 [2] | IC50 [3] | Structure (SMILES) |
| --- | --- | --- | --- |
| 680 nM | 14000 nM | – | NC(=O)[C@H](Cc1ccc(O)cc1)NC(=O)[C@@H]1CCCN1/C=C1\N=C(c2ccc(Cl)cc2Cl)OC1=O [(S)-1-[2-(2,4-Dichloro-phenyl)-5-oxo-oxazol-(4Z)-ylidenemethyl]-pyrrolidine-2-carboxylic acid [(S)-1-carbamoyl-2-(4-hydroxy-phenyl)-ethyl]-amide] |
| 510 nM | 1400 nM | – | NC(=O)[C@H](Cc1ccc(O)cc1)NC(=O)[C@@H]1CCN1/C=C1\N=C(c2ccc(Br)cc2)OC1=O [(S)-1-[2-(4-Bromo-phenyl)-5-oxo-oxazol-(4Z)-ylidenemethyl]-azetidine-2-carboxylic acid [(S)-1-carbamoyl-2-(4-hydroxy-phenyl)-ethyl]-amide] |
| – | 48000 nM | 1100 nM | NC(=O)[C@H](Cc1ccc(O)cc1)NC(=O)[C@@H]1CCCN1/C=C1\N=C(c2ccc(Br)cc2)OC1=O [(S)-1-[2-(4-Bromo-phenyl)-5-oxo-oxazol-(4Z)-ylidenemethyl]-pyrrolidine-2-carboxylic acid [(S)-1-carbamoyl-2-(4-hydroxy-phenyl)-ethyl]-amide] |
